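Test compounds were applied to cells in 96-well plates for 48 hours at 5 doses. GI50: concentration for 50% inhibition of growth.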 Active and inactive are the calls of the source. Rule as the data show it: active = GI50 up to about 1.1 µM and inactive = higher.
How the values were obtained:
Experiment in all cases: NCI anticancer screen, dose series, 48 h
[1] = tested on: A498
[2] = tested on: SNB-19
[3] = tested on: EKVX
[4] = tested on: ACHN
[5] = tested on: TK-10
[6] = tested on: SF-539
[7] = tested on: Malme-3M
[8] = tested on: 786-0
[9] = tested on: LOX IMVI
[10] = tested on: OVCAR-4
[11] = tested on: UO-31
[12] = tested on: HT-29
[13] = tested on: SF-295
[14] = tested on: K562
[15] = tested on: SK-OV-3

Measured: GI50

CCOC(=O)C(C)(C)Oc1ccc2c(-c3ccc(Cl)cc3)c(-c3ccc(Cl)cc3)c(=O)oc2c1
inactive: [1] > 100 µM | [2] > 100 µM | [3] > 100 µM | [4] > 100 µM | [5] > 100 µM | [6] > 100 µM | [7] > 100 µM | [8] > 100 µM | [9] > 100 µM | [10] > 100 µM | [11] > 100 µM | [12] > 100 µM | [13] > 100 µM | [14] > 100 µM

Cc1ccc(NC(=O)/C(Cl)=C(/Cl)C(=O)O)cc1
inactive: [1] 82.2 µM | [2] > 100 µM | [3] 16.1 µM | [4] 16.5 µM | [5] 18.7 µM | [7] 15.6 µM | [8] 17.3 µM | [9] 17.1 µM | [10] 18.2 µM | [11] 17.8 µM | [15] 18.8 µM | [12] 18.3 µM | [13] 30.2 µM | [14] 3.57 µM

CC1(OCc2ccccc2)C(=O)N2C1N(C(=O)OCc1ccccc1)CC2(C)C (centres undefined)
inactive: [1] 56.9 µM | [2] 54.2 µM | [3] 67.8 µM | [4] 61.1 µM | [5] > 100 µM | [6] > 100 µM | [7] 80 µM | [8] > 100 µM | [9] 46.6 µM | [10] > 100 µM | [11] 31.4 µM | [12] 67.8 µM | [13] 38.5 µM | [14] 42.8 µM

CCN(CC)C(=O)N1CCN(C=S)CC1
inactive: [1] > 100 µM | [2] > 100 µM | [3] > 100 µM | [4] > 100 µM | [5] > 100 µM | [6] > 100 µM | [7] > 100 µM | [8] > 100 µM | [9] > 100 µM | [10] > 100 µM | [11] > 100 µM | [15] > 100 µM | [12] > 100 µM | [14] > 100 µM

Cn1nc2ccc3nccc(NCCNCCO)c3c2n1
inactive: [2] 73.5 µM | [4] 34.3 µM | [5] 45.8 µM | [6] 33.6 µM | [7] 36.8 µM | [8] 38.5 µM | [9] 20.4 µM | [10] 40.9 µM | [11] 25.8 µM | [15] 34.1 µM | [12] 20.5 µM | [13] 39.3 µM | [14] 73.5 µM

N#Cc1cc([N+](=O)[O-])ccc1NC(=O)C(=O)Nn1c(S)nc2ccccc2c1=O
inactive: [1] > 100 µM | [2] > 100 µM | [3] > 100 µM | [5] > 100 µM | [6] > 100 µM | [7] > 100 µM | [8] > 100 µM | [9] > 100 µM | [10] > 100 µM | [11] > 100 µM | [15] > 100 µM | [12] > 100 µM | [13] > 100 µM | [14] > 100 µM

CCOC(=O)C(C)(C)Oc1ccc2c(-c3ccccc3)cc(=O)oc2c1
inactive: [1] 30.2 µM | [2] 42.1 µM | [3] 43 µM | [4] 40.2 µM | [5] 56.8 µM | [6] 31.8 µM | [7] 28.6 µM | [8] 33.7 µM | [9] 20.2 µM | [10] 35.4 µM | [11] 23 µM | [12] > 10 µM | [13] 40.9 µM | [14] 27.6 µM

CC(=O)N1CCC2(C=Nc3ccccc32)CC1
inactive: [1] > 100 µM | [3] > 100 µM | [4] > 100 µM | [5] > 100 µM | [6] > 100 µM | [7] > 100 µM | [8] > 100 µM | [9] > 100 µM | [10] > 100 µM | [15] > 100 µM | [12] > 100 µM | [13] > 100 µM | [14] > 100 µM

O=[N+]([O-])c1ccc(-c2ccc(C3=Nn4c(CNc5ccccc5Cl)nnc4SC3)o2)cc1
inactive: [2] > 100 µM | [4] 32.6 µM | [5] > 100 µM | [6] > 100 µM | [7] > 100 µM | [8] > 100 µM | [9] 42.7 µM | [11] > 100 µM | [15] > 100 µM | [12] > 100 µM | [13] > 100 µM | [14] 58.3 µM

NNC(=O)C(=O)N/N=C1/CCCC1C(=O)CCC(=O)Nc1ccc(Cl)cc1 (centres undefined)
inactive: [1] > 100 µM | [2] > 100 µM | [3] > 100 µM | [4] 15.3 µM | [5] > 100 µM | [6] > 100 µM | [7] > 100 µM | [8] > 100 µM | [10] > 100 µM | [11] > 100 µM | [15] > 100 µM | [12] > 100 µM | [13] > 100 µM | [14] 12.1 µM

CN(C)CCNC(=O)c1cccc2c1nc(-c1ccc(F)cc1)c1ccccc12
inactive: [1] 2.2 µM | [2] 6.93 µM | [3] 9.38 µM | [4] 2.64 µM | [5] 4.03 µM | [6] 3.63 µM | [8] 4.65 µM | [9] 1.83 µM | [10] 5.94 µM | [11] 1.64 µM | [15] 8.47 µM | [12] 3.85 µM | [13] 6.05 µM | [14] 2.44 µM

CC(=O)/C(=N\O)C(=O)NCc1ccccc1
inactive: [1] > 100 µM | [2] > 100 µM | [3] > 100 µM | [4] > 100 µM | [5] > 100 µM | [6] > 100 µM | [7] > 100 µM | [8] > 100 µM | [9] 20.2 µM | [11] > 100 µM | [15] > 100 µM | [12] > 100 µM | [13] > 100 µM | [14] 36.4 µM

O=C(Cc1ccccc1)NN1C(=O)C(Cl)C1c1cccc(O)c1 (centres undefined)
inactive: [2] 42.7 µM | [3] 18.6 µM | [4] 16.4 µM | [5] 18.9 µM | [7] 31.6 µM | [8] 13.2 µM | [9] 13.5 µM | [10] 17.7 µM | [11] 15.9 µM | [15] 28.2 µM | [12] 16.7 µM | [13] 16.7 µM | [14] 6.27 µM

COC(=O)C1Cc2c([nH]c3ccccc23)[C@H](CC(C)C)N1 (some centres undefined)
inactive: [1] > 100 µM | [2] > 100 µM | [3] > 100 µM | [4] > 100 µM | [5] > 100 µM | [6] > 100 µM | [7] > 100 µM | [8] > 100 µM | [9] > 100 µM | [11] > 100 µM | [15] > 100 µM | [12] > 100 µM | [13] > 100 µM | [14] > 100 µM

[O-][S+](c1ccc(O)cc1)c1ccc(O)cc1
inactive: [2] > 100 µM | [3] > 100 µM | [5] > 100 µM | [6] > 100 µM | [7] > 100 µM | [8] > 100 µM | [9] > 100 µM | [10] > 100 µM | [11] > 100 µM | [15] > 100 µM | [12] > 100 µM | [13] > 100 µM | [14] > 100 µM
